In US4450269A, “Mono-5-substituted-3-chloro-4H-1,2,6-thiadiazin-4-one antifungal agents” (FMC Corporation, priority 1980, dated 1984):

Legend:
Cladosporium cucumerinum = test: Spore germination test; type: cell-based; conditions: CC, 48 hours
How it was run: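 Compound in acetone mixed into water agar at 40, 10, 2.5 and 1 ppm; plates seeded with spore suspension and incubated 48 hours at 24 °C. Percentage germinated spores counted and converted into a germination rating.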

Uromyces phaseoli = test: whole plant or invertebrate; conditions: foliar, 24 h, read-out: Percent Disease Control, curative, bean rust
Pythium ultimum = test: Mycelial growth test; type: cell-based; conditions: Globisporangium ultimum, 72 h, PU, read-out: Percent Fungus Growth Inhibition

Structure (SMILES)	Spore Germination Rating (Cladosporium cucumerinum; 1.0 ppm)	Spore Germination Rating (Cladosporium cucumerinum; 2.5 ppm)	Spore Germination Rating (Cladosporium cucumerinum; 10 ppm)	Spore Germination Rating (Cladosporium cucumerinum; 40 ppm)	pest or weed control at 150 ppm (Uromyces phaseoli)	inhibition at 5 ppm (Pythium ultimum)	inhibition at 10 ppm (Pythium ultimum)	inhibition at 20 ppm (Pythium ultimum)	inhibition at 40 ppm (Pythium ultimum)
Cc1ccc(Oc2nsnc(Cl)c2=O)c(Br)c1 [Compound 57, 3-[(2-bromo-4-methyl)-phenoxy]-5-chloro-4H--1,2,6-thiadiazin-4-one]	3 (60-80)	0 (0-10)	0 (0-10)	0 (0-10)	0%	42%	60%	100%	100%
O=c1c(Cl)nsnc1Oc1c(Cl)cccc1Cl [Compound 18, 3-chloro-5-(2,6-dichlorophenoxy)-4H--1,2,6-thiadiazin-4-one]	4 (80-100)	0 (0-10)	0 (0-10)	0 (0-10)	0%	13%	60%	100%	100%
O=c1c(Cl)nsnc1Oc1c(Cl)c(Cl)c(Cl)c(Cl)c1Cl [Compound 31, 3-chloro-5-(pentachlorophenoxy)-4H--1,2,6-thiadiazine-4-one]	0 (0-10)	0 (0-10)	0 (0-10)	0 (0-10)	0%	0%	0%	0%	0%
O=c1c(Cl)nsnc1Oc1ccc(Cl)cc1 [Compound 12, 3-chloro-5-(4-chlorophenoxy)-4H--1,2,6-thiadiazin-4-one]	2 (40-60)	0 (0-10)	0 (0-10)	0 (0-10)	0%	42%	100%	100%	100%
O=c1c(Cl)nsnc1Oc1cccc(Cl)c1Cl [Compound 19, 3-chloro-5-(2,3-dichlorophenoxy)-4H--1,2,6-thiadiazin-4-one]	2 (40-60)	0 (0-10)	0 (0-10)	0 (0-10)	100%	20%	80%	100%	100%
CSc1ccc(Oc2nsnc(Cl)c2=O)cc1 [Compound 39, 3-chloro-5-[(4-methylthio)phenoxy]-4H-1,2,6,-thiadiazin-4-one]	1 (10-40)	0 (0-10)	0 (0-10)	0 (0-10)	0%	0%	24%	100%	100%
O=c1c(Cl)nsnc1Oc1c(Cl)cc(Cl)cc1Cl [Compound 30, 3-chloro-5-(2,4,6-trichlorophenoxy)-4H--1,2,6-thiadiazin-4-one]	0 (0-10)	0 (0-10)	0 (0-10)	0 (0-10)	0%	20%	71%	96%	100%
CC(=O)Nc1ccccc1Oc1nsnc(Cl)c1=O [Compound 43, 3-[(2-acetylamino)-phenoxy]-5-chloro-4H--1,2,6-thiadiazin-4-one]	4 (80-100)	4 (80-100)	2 (40-60)	0 (0-10)	0%	0%	0%	0%	0%
CNC(=O)Nc1ccc(Oc2nsnc(Cl)c2=O)cc1 [Compound 28, 3-chloro-5-[4-(3-methylureido)-phenoxy]-4H--1,2,6-thiadiazin-4-one]	2 (40-60)	2 (40-60)	1 (10-40)	0 (0-10)	0%	0%	80%	91%	100%
CC(=O)c1ccccc1Oc1nsnc(Cl)c1=O [Compound 49, 3-(2-acetylphenoxy)-5-chloro-4H--1,2,6-thiadiazin-4-one]	0 (0-10)	0 (0-10)	0 (0-10)	0 (0-10)	0%	47%	87%	96%	100%
COc1ccc(Cl)c(Oc2nsnc(Cl)c2=O)c1 [Compound 51, 3-chloro-5-[(2-chloro-5-methoxy)phenoxy]-4H--1,2,6-thiadiazin-4-one]	3 (60-80)	0 (0-10)	0 (0-10)	0 (0-10)	0%	0%	31%	91%	100%
O=C(O)Cc1ccccc1Oc1nsnc(Cl)c1=O [Compound 45, 3-(2-carboxymethylphenoxy)-5-chloro-4H--1,2,6-thiadiazin-4-one]	4 (80-100)	4 (80-100)	2 (40-60)	0 (0-10)	0%	0%	42%	69%	100%
Cc1ccccc1Oc1nsnc(Cl)c1=O [Compound 22, 3-chloro-5-(2-methylphenoxy)-4H--1,2,6-thiadiazin-4-one]	0 (0-10)	0 (0-10)	0 (0-10)	0 (0-10)	0%	20%	64%	96%	100%
O=C(Nc1ccccc1)Nc1ccc(Oc2nsnc(Cl)c2=O)cc1 [Compound 29, 3-chloro-5-[4-(3-phenylureido)-phenoxy]-4H--1,2,6-thiadiazin-4-one]	2 (40-60)	2 (40-60)	2 (40-60)	1 (10-40)	0%	0%	0%	0%	0%
CCCCOc1ccc(Oc2nsnc(Cl)c2=O)cc1 [Compound 6, 3-chloro-5-(4-n-butoxyphenoxy)-4H--1,2,6-thiadiazin-4-one]	0 (0-10)	0 (0-10)	0 (0-10)	0 (0-10)	90%	0%	0%	0%	22%
Cc1ccc(Oc2nsnc(Cl)c2=O)c(C)c1 [Compound 23, 3-chloro-5-(2,4-dimethylphenoxy)-4H--1,2,6-thiadiazin-4-one]	4 (80-100)	1 (10-40)	0 (0-10)	0 (0-10)	0%	62%	69%	71%	100%
O=c1c(Cl)nsnc1Oc1ccc([N+](=O)[O-])cc1Cl [Compound 53, 3-chloro-5-(2-chloro-4-nitrophenoxy)-4H--1,2,6-thiadiazin-4-one]	0 (0-10)	0 (0-10)	0 (0-10)	0 (0-10)	0%	20%	82%	100%	100%
CC(=O)Nc1cccc(Oc2nsnc(Cl)c2=O)c1 [Compound 42, 3-[(3-N--acetylamino)-phenoxy]-5-chloro-4H--1,2,6-thiadiazin-4-one]	4 (80-100)	4 (80-100)	3 (60-80)	0 (0-10)	0%	0%	42%	100%	100%
COc1ccc(Oc2nsnc(Cl)c2=O)cc1 [Compound 5, 3-chloro-5-(4-methoxyphenoxy)4H--1,2,6-thiadiazin-4-one]	4 (80-100)	4 (80-100)	0 (0-10)	0 (0-10)	0%	0%	42%	76%	100%
O=c1c(Cl)nsnc1Oc1ccccc1Cl [Compound 14, 3-chloro-5-(2-chlorophenoxy)-4H--1,2,6-thiadiazin-4-one]	4 (80-100)	0 (0-10)	0 (0-10)	0 (0-10)	100%	31%	53%	100%	100%
O=c1c(Cl)nsnc1Oc1ccccc1 [Compound 2, 3-chloro-5-phenoxy-4H--1,2,6-thiadiazin-4-one]	4 (80-100)	4 (80-100)	0 (0-10)	0 (0-10)	0%	0%	42%	100%	100%
CS(=O)(=O)c1ccc(Oc2nsnc(Cl)c2=O)cc1 [Compound 41, 3-chloro-5-[(4-methylsulfonyl)phenoxy]-4H--1,2,6-thiadiazin-4-one]	0 (0-10)	0 (0-10)	0 (0-10)	0 (0-10)	0%	0%	100%	100%	100%
O=C(OCc1ccccc1)Oc1ccc(Oc2nsnc(Cl)c2=O)cc1 [Compound 38, 3-chloro-5-[4-(phenylmethoxycarbonyloxy)phenoxyl]-4H-1,2,6-thiadiazin-4-one]	4 (80-100)	4 (80-100)	3 (60-80)	3 (60-80)	100%	0%	0%	0%	0%
